According to patent publication US7678363B2, “Methods of treating psychiatric conditions comprising administration of muscarinic agents in combination with SSRIs” (priority 2005, dated 2010):
Counter-ions that a name gives are not always drawn.

What was measured:
[1] = clinical reports; cited from earlier work
human mGlu3 = human mGlu3 (Homo sapiens, UniProt Q14832); conditions: read-out: EC50 against human mGlu3 receptors; agonist, in vitro; cited from earlier work
human mGlu2 = human mGlu2 (Homo sapiens, UniProt Q14416); conditions: read-out: EC50 against human mGlu2 receptors; agonist, in vitro; cited from earlier work
[2] = tested on: Human neural stem cells (hNSCs); assay: Neuronal differentiation of human neural stem cells (TUJ-1 staining); format: cell-based; conditions: for EC50: read-out: EC50 for neuronal differentiation, agent alone
Procedure: Mitogen-free test media with 5 μM DHEA served as a positive control for neuronal differentiation, and basal media without growth factors served as a negative control.
The presence of synergy was determined by use of a combination index (CI). […] The CI is a quantitative measure of the nature of drug interactions, comparing the EC50's of two compounds, when each is assayed alone, to the EC50 of each compound when assayed in combination. The combination index (CI) is equal to the following formula: […]
where C1 and C2 are the concentrations of a first and a second compound, respectively, resulting in 50% activity in neuronal differentiation when assayed in combination; and IC1 and IC2 are the concentrations of each compound resulting in 50% activity when assayed independently.

[3] = not told; cited from earlier work
[4] = tested on: KA, AMPA, and NMDA iGlu receptors; conditions: cited from earlier work
mGlu7 and mGlu8 = conditions: at higher concentrations (e.g., above 1 μM); cited from earlier work
mGluR3 = mGluR3 (Homo sapiens, UniProt Q14832); conditions: antagonist; read-out: IC50 against mGluR3; cited from earlier work
[5] = tested on: Group I and Group III receptors; conditions: at sub-mM concentrations; cited from earlier work
mGluR2 = mGluR2 (Homo sapiens, UniProt Q14416); conditions: antagonist; read-out: IC50 against mGluR2; cited from earlier work
[6] = tested on: Human neural stem cells (hNSCs); assay: cells; conditions: Neural stem cell, read-out: EC50 for astrocyte differentiation
[7] = tested on: Human neural stem cells (hNSCs); conditions: maximum of curve
[8] = Homo sapiens, Neural stem cell, agent run independently, percentage of neuronal positive control, basal media values subtracted
[9] = agent run independently, percentage of neuronal positive control, basal media values subtracted

human mGlu2, sequence (Q14416 19-872): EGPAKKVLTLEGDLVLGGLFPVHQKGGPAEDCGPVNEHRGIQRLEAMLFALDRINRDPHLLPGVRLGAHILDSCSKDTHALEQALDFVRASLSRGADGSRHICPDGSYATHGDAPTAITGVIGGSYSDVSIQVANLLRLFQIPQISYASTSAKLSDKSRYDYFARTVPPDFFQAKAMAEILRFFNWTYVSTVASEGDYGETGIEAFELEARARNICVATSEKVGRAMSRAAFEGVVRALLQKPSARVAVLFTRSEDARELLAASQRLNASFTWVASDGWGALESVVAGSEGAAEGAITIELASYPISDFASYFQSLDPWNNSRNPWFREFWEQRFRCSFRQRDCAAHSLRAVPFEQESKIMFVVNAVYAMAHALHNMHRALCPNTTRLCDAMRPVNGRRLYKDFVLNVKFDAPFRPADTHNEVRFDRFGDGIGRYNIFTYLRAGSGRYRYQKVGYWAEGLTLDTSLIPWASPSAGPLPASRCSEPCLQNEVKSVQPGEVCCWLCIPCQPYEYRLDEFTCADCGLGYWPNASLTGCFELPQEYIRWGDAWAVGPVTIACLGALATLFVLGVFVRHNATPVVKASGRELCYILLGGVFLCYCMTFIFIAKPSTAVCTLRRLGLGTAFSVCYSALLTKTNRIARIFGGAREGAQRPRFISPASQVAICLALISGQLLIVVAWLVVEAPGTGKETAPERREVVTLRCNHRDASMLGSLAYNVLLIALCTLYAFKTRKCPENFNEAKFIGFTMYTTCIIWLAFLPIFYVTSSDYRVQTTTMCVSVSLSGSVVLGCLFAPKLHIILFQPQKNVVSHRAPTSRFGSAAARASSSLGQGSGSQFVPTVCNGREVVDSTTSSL
mGluR2, sequence (Q14416 19-872): as above
human mGlu3, sequence (Q14832 23-879): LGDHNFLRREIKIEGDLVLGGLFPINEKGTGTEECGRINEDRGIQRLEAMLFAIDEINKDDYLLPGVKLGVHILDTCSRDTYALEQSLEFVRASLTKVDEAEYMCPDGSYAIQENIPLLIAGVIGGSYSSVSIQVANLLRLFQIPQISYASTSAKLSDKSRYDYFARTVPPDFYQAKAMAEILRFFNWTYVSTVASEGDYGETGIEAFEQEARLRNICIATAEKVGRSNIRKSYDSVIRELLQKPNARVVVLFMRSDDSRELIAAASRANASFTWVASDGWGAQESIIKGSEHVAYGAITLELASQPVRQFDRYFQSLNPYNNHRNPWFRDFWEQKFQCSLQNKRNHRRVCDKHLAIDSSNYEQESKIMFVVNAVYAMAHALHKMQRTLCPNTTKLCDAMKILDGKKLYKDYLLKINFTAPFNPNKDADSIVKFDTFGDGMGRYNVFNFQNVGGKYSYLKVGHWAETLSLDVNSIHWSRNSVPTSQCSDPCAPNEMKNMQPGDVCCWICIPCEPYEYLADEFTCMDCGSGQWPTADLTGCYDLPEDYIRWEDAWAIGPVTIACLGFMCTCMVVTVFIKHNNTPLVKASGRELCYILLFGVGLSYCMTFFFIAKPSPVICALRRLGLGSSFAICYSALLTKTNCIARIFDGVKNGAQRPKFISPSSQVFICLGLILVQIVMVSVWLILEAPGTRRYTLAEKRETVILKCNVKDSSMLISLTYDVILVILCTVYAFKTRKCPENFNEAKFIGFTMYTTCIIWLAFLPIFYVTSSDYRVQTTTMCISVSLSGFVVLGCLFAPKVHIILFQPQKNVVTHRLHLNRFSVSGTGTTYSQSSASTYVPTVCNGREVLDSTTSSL
mGluR3, sequence (Q14832 23-879): as above

With CNCCC(Oc1ccc(C(F)(F)F)cc1)c1ccccc1 (stereo not shown) [fluoxetine] as the compound, how does the “reported side effects / dose limiting toxicities” value [1] read?
Its value is “sexual dysfunction and (rarely) agitation and increased suicidal thoughts”.

What does the source list for N[C@@]1(C(=O)O)CO[C@H]2[C@H](C(=O)O)[C@H]21 [LY379268, (−)-2-Oxa-4-aminobicyclohexane-4,6-dicarboxylic acid]?
EC50 (human mGlu3): < 10 nM; EC50 (human mGlu2): < 10 nM

For CSc1ccc(C(=O)c2[nH]c(=O)[nH]c2C)cc1 [Enozimone, enoximone], which EC50 [2, 8] is on record?
The EC50 was 6.76 µM.

For NCC(CC(=O)O)c1ccc(Cl)cc1 (stereo not shown) [Baclofen], which EC50 ([2]; Homo sapiens, Neural stem cell) is on record?
Its EC50 is 3.6 µM.

For CNC(=O)Oc1ccc2c(c1)[C@]1(C)CCN(C)[C@@H]1N2C (single isomer, unassigned) [Physostigmine, 1,2,3,3a,8,8a-hexahydro-1,3a,8-trimethyl-, methylcarbamate (ester) or (3aS,8aR)-pyrrolo(2,3-b)indol-5-ol], which blood-brain barrier permeability [3] is on record?
The blood-brain barrier permeability was “capable of crossing the blood-brain barrier”.

For CN(CCOc1ccc(CC2SC(=O)NC2=O)cc1)c1ccccn1 (stereo not shown) [Rosiglitazone, rosiglitazone], which EC50 [2, 8] is on record?
The EC50 was 0.94 µM.

Which “activity against KA, AMPA, and NMDA iGlu receptors” value [4] does the source give for N[C@](CC1c2ccccc2Oc2ccccc21)(C(=O)O)[C@H]1C[C@@H]1C(=O)O [LY341495, (2S)-2-amino-2-(1S,2S-2-carboxycycloprop-1-yl)-3-(xanth-9-yl)propanoic acid] here?
Its value is “substantially inactive”.

What about the “activity against mGlu7 and mGlu8” value (mGlu7 and mGlu8) of the same compound?
The value was “antagonist activity”.

Which results are given for C[C@H](CS)C(=O)N1CCC[C@H]1C(=O)O [captopril]?
EC50 [2, 8]: 3.78 µM; EC50 [2, 9]: 2 µM

With Clc1ccc2c(c1)N=C(N1CCNCC1)c1ccccc1N2 [N-desmethylclozapine] as the compound, how does the neurogenic activity ([2]; in assays as disclosed herein (not specified)) read?
Its neurogenic activity is “highly neurogenic”.

For COC(=O)C(c1ccccc1)C1CCCCN1 (stereo not shown) [Ritalin, Methylphenidate hydrochloride], which EC50 ([2]; Homo sapiens, Neural stem cell) is on record?
The EC50 was 3.5 µM.

Which results are given for NC1(C(=O)O)CCc2cc(P(=O)(O)O)ccc21 (racemic) [APICA, (RS)-1-amino-5-phosphonoindan-1-carboxylic acid]?
IC50 (mGluR3): ~30 µM; activity against Group I or Group III receptors [5]: no appreciable activity; IC50 (mGluR2): ~30 µM

For Nc1c2c(nc3ccccc13)CCCC2 [Tacrine, tetrahydroaminoacridine], which EC50 [2, 8] is on record?
The EC50 was 8 µM.

Which results are given for COc1cc2c(cc1OC)C(=O)C(CC1CCN(Cc3ccccc3)CC1)C2 (stereo not shown) [donepezil, 2,3-dihydro-5,6-dimethoxy-2-((1-(phenylmethyl)-4-piperidinyl)methyl)-1H-inden-1-one]?
EC50 ([2]; agent run independently, percentage of neuronal positive control, basal media values subtracted, listed as Donepezil): 2.02 µM; EC50 [2, 9]: 4.7 µM

What does the source list for O=C1CC2(CCCC2)CC(=O)N1CCCCN1CCN(c2ncccn2)CC1 [buspirone]?
EC50 ([2]; Homo sapiens, Neural stem cell): 8.4 µM; EC50 [6]: 5.7 µM; maximum astrocyte differentiation, % of the positive control [7]: 60%
